Several values for one entry are separate records, joined by “and”; a condition that tells them apart may be missing. Equal values may be shown once. Inconclusive results and toxic doses are left out. Residues, ends and D or L forms follow the SMILES beside them. *: point of attachment. Trt = c1ccc(C(c2ccccc2)(c2ccccc2)*)cc1
System: BDF1 mice, P388 leukemia ip, median survival T/C
Assay: NCI In Vivo Anticancer Drug Screen. Data for tumor model P388 Leukemia (intraperitoneal) in B6D2F1 (BDF1) mice
Conditions: endpoint: median survival time, higher = longer survival
Procedure, shortened: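 Antitumour effect was judged in vivo: survival in drug-treated mice, normalised to that of vehicle-dosed controls, gives the reported T/C.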

[1] = dose: 12.5 mg/kg/injection, schedule: Q01DX009 (ip), vehicle: saline
[2] = dose: 25.0 mg/kg/injection, schedule: Q01DX009 (ip), vehicle: saline
[3] = dose: 50.0 mg/kg/injection, schedule: Q01DX009 (ip), vehicle: saline
[4] = dose: 12.5 mg/kg/injection, schedule: Q04DX003 (ip), vehicle: saline
[5] = dose: 25.0 mg/kg/injection, schedule: Q04DX003 (ip), vehicle: saline
[6] = dose: 50.0 mg/kg/injection, schedule: Q04DX003 (ip), vehicle: saline
[7] = dose: 100.0 mg/kg/injection, schedule: Q04DX003 (ip), vehicle: saline with Tween-80
[8] = dose: 200.0 mg/kg/injection, schedule: Q04DX003 (ip), vehicle: saline with Tween-80
[9] = dose: 400.0 mg/kg/injection, schedule: Q04DX003 (ip), vehicle: saline with Tween-80
[10] = dose: 6.25 mg/kg/injection, schedule: Q01DX009 (ip), vehicle: saline
[11] = dose: 25.0 mg/kg/injection, schedule: Q01DX009 (ip), vehicle: saline with Tween-80
[12] = dose: 50.0 mg/kg/injection, schedule: Q01DX009 (ip), vehicle: saline with Tween-80
[13] = dose: 100.0 mg/kg/injection, schedule: Q01DX009 (ip), vehicle: saline with Tween-80
[14] = dose: 100.0 mg/kg/injection, schedule: Q04DX003 (ip), vehicle: saline
[15] = dose: 200.0 mg/kg/injection, schedule: Q04DX003 (ip), vehicle: saline
[16] = dose: 25.0 mg/kg/injection, schedule: Q01DX009 (ip), vehicle: water
[17] = dose: 100.0 mg/kg/injection, schedule: Q04DX003 (ip), vehicle: water
[18] = dose: 400.0 mg/kg/injection, schedule: Q01DX009 (ip), vehicle: water
[19] = dose: 200.0 mg/kg/injection, schedule: Q01DX009 (ip), vehicle: saline with Tween-80
[20] = dose: 400.0 mg/kg/injection, schedule: Q01DX009 (ip), vehicle: saline with Tween-80
[21] = dose: 100.0 mg/kg/injection, schedule: Q01DX009 (ip), vehicle: saline
[22] = dose: 25.0 mg/kg/injection, schedule: Q04DX003 (ip), vehicle: water
[23] = dose: 50.0 mg/kg/injection, schedule: Q04DX003 (ip), vehicle: water
[24] = dose: 200.0 mg/kg/injection, schedule: Q04DX003 (ip), vehicle: water
[25] = dose: 200.0 mg/kg/injection, schedule: Q01DX009 (ip), vehicle: saline

c1ccc(N/N=C(/C[n+]2cc3ccccc3c3ccccc32)c2ccccc2)cc1
T/C (dose: 25.0 mg/kg/injection, schedule: Q01DX009 (ip), vehicle: Klucel (hydroxypropylcellulose) (HPC)): 114 % of control | T/C (dose: 33.0 mg/kg/injection, schedule: Q01DX009 (ip), vehicle: Klucel (hydroxypropylcellulose) (HPC)): 113 % of control | T/C (dose: 35.0 mg/kg/injection, schedule: Q01DX009 (ip), vehicle: Klucel (hydroxypropylcellulose) (HPC)): 95 % of control | T/C (dose: 50.0 mg/kg/injection, schedule: Q01DX009 (ip), vehicle: Klucel (hydroxypropylcellulose) (HPC)): 100 % of control | T/C (dose: 75.0 mg/kg/injection, schedule: Q01DX009 (ip), vehicle: Klucel (hydroxypropylcellulose) (HPC)): 112 % of control and 122 % of control | T/C (dose: 100.0 mg/kg/injection, schedule: Q01DX009 (ip), vehicle: Klucel (hydroxypropylcellulose) (HPC)): 114 % of control

CC1=C(O)C(O)C2OC2C1=O (centres undefined)
T/C [1]: 96 % of control | T/C [2]: 87 % of control | T/C [3]: 107 % of control

CC(C)(C)C#C[P+](C#CC(C)(C)C)(Cc1ccccc1)c1ccccc1
T/C [1]: 96 % of control | T/C [4]: 123 % of control | T/C [5]: 123 % of control | T/C [6]: 107 % of control

CCc1ccc(NC(=O)c2cccc(Cl)c2)cc1
T/C [7]: 109 % of control | T/C [8]: 109 % of control | T/C [9]: 109 % of control

COc1cc(OC)c(OC)cc1/C=C/c1cc[n+](C)c2ccccc12
T/C [10]: 111 % of control | T/C [1]: 119 % of control | T/C (dose: 16.0 mg/kg/injection, schedule: Q01DX009 (ip), vehicle: saline): 111 % of control | T/C (dose: 35.0 mg/kg/injection, schedule: Q01DX009 (ip), vehicle: saline): 119 % of control

C=CCN(CC=C)c1ncnc2[nH]ncc12
T/C [11]: 100 % of control | T/C [12]: 100 % of control | T/C [13]: 109 % of control

O=C(O)C1OC(n2cc(F)c(=O)[nH]c2=O)CC1O (centres undefined)
T/C [6]: 108 % of control | T/C [14]: 116 % of control | T/C [15]: 106 % of control | T/C (dose: 300.0 mg/kg/injection, schedule: Q04DX003 (ip), vehicle: saline): 108 % of control

COC(=O)CC1C(=O)C(C)(C(=O)OC)CCC1c1ccc(OC)cc1 (centres undefined)
T/C [14]: 109 % of control | T/C [15]: 109 % of control | T/C (dose: 400.0 mg/kg/injection, schedule: Q04DX003 (ip), vehicle: saline): 104 % of control

COC(=O)C(NC(=O)C(N)CSC(c1ccccc1)(c1ccccc1)c1ccccc1)C(C)C (centres undefined) (H-Cys(Trt)-Val-OMe; configuration not given here)
T/C (dose: 50.0 mg/kg/injection, schedule: Q01DX009 (sc), vehicle: olive oil, sesame oil, peanut oil): 117 % of control | T/C (dose: 50.0 mg/kg/injection, schedule: Q04DX003 (sc), vehicle: olive oil, sesame oil, peanut oil): 90 % of control | T/C (dose: 100.0 mg/kg/injection, schedule: Q01DX009 (sc), vehicle: olive oil, sesame oil, peanut oil): 104 % of control | T/C (dose: 100.0 mg/kg/injection, schedule: Q04DX003 (sc), vehicle: olive oil, sesame oil, peanut oil): 90 % of control | T/C (dose: 200.0 mg/kg/injection, schedule: Q01DX009 (sc), vehicle: olive oil, sesame oil, peanut oil): 104 % of control | T/C (dose: 200.0 mg/kg/injection, schedule: Q04DX003 (sc), vehicle: olive oil, sesame oil, peanut oil): 100 % of control

COc1ccc(CN2CC(C)NC(C)C2)cc1 (centres undefined)
T/C (dose: 3.12 mg/kg/injection, schedule: Q01DX009 (ip), vehicle: water): 108 % of control | T/C (dose: 6.25 mg/kg/injection, schedule: Q01DX009 (ip), vehicle: water): 103 % of control | T/C (dose: 12.5 mg/kg/injection, schedule: Q01DX009 (ip), vehicle: water): 95 % of control | T/C [16]: 91 % of control | T/C (dose: 50.0 mg/kg/injection, schedule: Q01DX009 (ip), vehicle: water): 117 % of control | T/C (dose: 100.0 mg/kg/injection, schedule: Q01DX009 (ip), vehicle: water): 100 % of control | T/C [17]: 99 % of control | T/C (dose: 200.0 mg/kg/injection, schedule: Q01DX009 (ip), vehicle: water): 98 % of control | T/C (dose: 300.0 mg/kg/injection, schedule: Q01DX009 (ip), vehicle: water): 117 % of control | T/C [18]: 97 % of control

COc1ccc(CC(Cc2ccc(OC)c(OC)c2)NC=O)cc1OC
T/C [13]: 99 % of control | T/C [7]: 101 % of control | T/C [19]: 91 % of control | T/C [8]: 102 % of control | T/C [20]: 87 % of control | T/C [9]: 116 % of control

O=C(Nc1ccc(Cl)cc1)P(=O)(O)c1ccccc1
T/C [10]: 98 % of control | T/C [1]: 104 % of control | T/C [2]: 98 % of control | T/C [3]: 99 % of control | T/C [21]: 100 % of control and 102 % of control

N#CN1CC(C(=O)N2CCCCC2)C=C2c3cccc4[nH]cc(c34)CC21 (centres undefined)
T/C [10]: 106 % of control | T/C (dose: 6.25 mg/kg/injection, schedule: Q04DX003 (ip), vehicle: saline): 114 % of control | T/C [1]: 94 % of control | T/C [4]: 113 % of control | T/C [5]: 106 % of control | T/C [3]: 88 % of control | T/C [6]: 106 % of control | T/C [14]: 94 % of control

O=C(c1ccccc1)N1CC1
T/C [16]: 101 % of control | T/C [22]: 115 % of control | T/C [23]: 92 % of control | T/C [17]: 100 % of control | T/C [24]: 109 % of control | T/C [18]: 112 % of control | T/C (dose: 400.0 mg/kg/injection, schedule: Q04DX003 (ip), vehicle: water): 115 % of control

N#CC1(NC(Cc2ccccc2)c2ccccc2)CCCCCCCCCCC1 (centres undefined)
T/C [12]: 92 % of control | T/C [13]: 86 % of control | T/C [19]: 104 % of control | T/C [20]: 102 % of control

O=C(O)C(NC1CCCCC1)c1ccccc1 (centres undefined)
T/C [3]: 120 % of control | T/C [21]: 105 % of control | T/C [25]: 100 % of control

N=C(N)c1ccc(-c2ccc(-c3ccc(C(=N)N)cc3)o2)cc1
T/C (dose: 3.13 mg/kg/injection, schedule: Q01DX009 (ip), vehicle: saline with Tween-80): 111 % of control | T/C (dose: 6.25 mg/kg/injection, schedule: Q01DX009 (ip), vehicle: saline with Tween-80): 119 % of control

CCN(Cc1ccccc1)c1ccc(/C=C/c2ccnc3ccccc23)cc1
T/C [12]: 100 % of control | T/C [13]: 90 % of control | T/C [19]: 108 % of control

COC(=O)CC1(O)C=CC(=O)C=C1
T/C (dose: 2.0 mg/kg/injection, schedule: Q01DX009 (ip), vehicle: saline): 165 % of control | T/C (dose: 5.0 mg/kg/injection, schedule: Q01DX009 (ip), vehicle: saline): 114 % of control | T/C (dose: 10.0 mg/kg/injection, schedule: Q01DX009 (ip), vehicle: saline): 116 % of control | T/C [2]: 153 % of control

CS(=O)(=O)Nc1ccccc1-c1nc2ccccc2c(=O)o1
T/C [11]: 105 % of control | T/C [12]: 104 % of control | T/C [13]: 105 % of control | T/C [19]: 103 % of control

C/C(=C/CC(=O)O)C(=O)O
T/C (dose: 12.5 mg/kg/injection, schedule: Q04DX003 (ip), vehicle: water): 119 % of control | T/C [22]: 97 % of control | T/C [23]: 97 % of control | T/C [17]: 103 % of control | T/C [24]: 122 % of control

COc1cc(C(=O)N(C)C)cc(OC)c1OC
T/C [2]: 112 % of control | T/C [3]: 98 % of control | T/C [21]: 98 % of control | T/C [25]: 101 % of control

O=C(NC(=O)c1c(F)cccc1F)Nc1ccc(Br)cc1
T/C [12]: 101 % of control | T/C [13]: 100 % of control | T/C [19]: 96 % of control

COC(=O)C1=C(C)NC(C)=C(C(=O)OC)C1C(C)SC#N (centres undefined)
T/C [12]: 107 % of control | T/C [13]: 109 % of control | T/C [19]: 97 % of control

CCCCC(OC(=O)c1ccccc1)c1cc(OC(=O)c2ccccc2)c2c(c1OC(=O)c1ccccc1)CC(C)=C(C)C2 (centres undefined)
T/C (dose: 12.5 mg/kg/injection, schedule: Q04DX003 (ip), vehicle: saline with Tween-80): 111 % of control | T/C (dose: 25.0 mg/kg/injection, schedule: Q04DX003 (ip), vehicle: saline with Tween-80): 107 % of control

From PubChem BioAssay AID328 (DTP/NCI, 2004)
